Test [1] concerns the target Casein kinase I isoform epsilon (Homo sapiens) (UniProt P49674). Nature of the test: Residual activity of CK1epsilon at 1 uM by microplate scintillation counting.
Test [2] deals with Death-associated protein kinase 3 (Homo sapiens) (UniProt O43293). The test is described as follows: Residual activity of DAPK3 at 1 uM by microplate scintillation counting.
The target in test [3] is Fibroblast growth factor receptor 1 (Homo sapiens) (UniProt P11362). Nature of the test: Residual activity of wild type FGF-R1 at 1 uM by microplate scintillation counting.
Test [4] concerns the target Eukaryotic translation initiation factor 2-alpha kinase 1 (Homo sapiens) (UniProt Q9BQI3). Nature of the test: Residual activity of HRI at 1 uM by microplate scintillation counting.
Test [5] addresses Death-associated protein kinase 1 (Homo sapiens) (UniProt P53355). The test is described as follows: Residual activity of DAPK1 at 0.1 uM by microplate scintillation counting.
Test [6] concerns the target Protein kinase C beta type (Homo sapiens) (UniProt P05771). The test is described as follows: Residual activity of PKCbeta1 at 1 uM by microplate scintillation counting.
Test [7] addresses T1, Ephrin type-B receptor 3 (Homo sapiens) (UniProt P54753).
T1 sequence (whole entry): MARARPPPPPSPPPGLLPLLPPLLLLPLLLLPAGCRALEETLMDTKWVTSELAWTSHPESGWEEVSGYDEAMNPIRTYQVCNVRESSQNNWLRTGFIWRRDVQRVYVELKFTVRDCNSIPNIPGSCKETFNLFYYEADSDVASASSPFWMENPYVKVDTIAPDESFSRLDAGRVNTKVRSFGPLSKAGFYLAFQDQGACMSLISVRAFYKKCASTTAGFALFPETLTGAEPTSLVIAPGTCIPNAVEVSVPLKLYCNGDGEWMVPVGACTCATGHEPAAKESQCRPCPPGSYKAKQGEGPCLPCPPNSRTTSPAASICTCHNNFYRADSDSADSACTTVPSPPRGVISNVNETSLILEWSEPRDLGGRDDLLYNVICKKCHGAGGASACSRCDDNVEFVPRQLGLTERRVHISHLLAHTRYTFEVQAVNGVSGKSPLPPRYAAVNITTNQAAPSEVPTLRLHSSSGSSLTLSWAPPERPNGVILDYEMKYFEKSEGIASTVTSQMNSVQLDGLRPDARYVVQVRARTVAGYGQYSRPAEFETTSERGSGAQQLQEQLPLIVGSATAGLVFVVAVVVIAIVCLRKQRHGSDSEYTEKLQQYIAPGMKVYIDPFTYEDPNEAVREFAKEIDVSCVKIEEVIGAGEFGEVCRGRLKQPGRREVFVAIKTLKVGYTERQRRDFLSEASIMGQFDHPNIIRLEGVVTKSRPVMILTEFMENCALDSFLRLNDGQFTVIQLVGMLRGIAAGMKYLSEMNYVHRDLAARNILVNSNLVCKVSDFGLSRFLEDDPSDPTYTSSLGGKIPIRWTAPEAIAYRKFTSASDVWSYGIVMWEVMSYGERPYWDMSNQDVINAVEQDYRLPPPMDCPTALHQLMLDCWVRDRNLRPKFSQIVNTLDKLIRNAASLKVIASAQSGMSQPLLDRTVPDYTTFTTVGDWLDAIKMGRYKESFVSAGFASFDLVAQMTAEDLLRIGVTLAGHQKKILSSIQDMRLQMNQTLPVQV
The test is described as follows: Residual activity of EPHB3 at 0.1 uM by microplate scintillation counting.

Test [8] addresses Serine/threonine-protein kinase 24 (Homo sapiens) (UniProt Q9Y6E0). The test is described as follows: Residual activity of MST3 at 0.1 uM by microplate scintillation counting.
The target in test [9] is Ribosomal protein S6 kinase alpha-2 (Homo sapiens) (UniProt Q15349). The test is described as follows: Residual activity of RPS6KA2 at 1 uM by microplate scintillation counting.
In test [10] the target is RAC-gamma serine/threonine-protein kinase (Homo sapiens) (UniProt Q9Y243). Nature of the test: Residual activity of AKT3 at 10 uM by microplate scintillation counting.
Test [11] has as its target Serine/threonine-protein kinase MRCK beta (Homo sapiens) (UniProt Q9Y5S2). Nature of the test: Residual activity of CDC42BPB at 1 uM by microplate scintillation counting.
For test [12], the target named is T2, Calcium/calmodulin-dependent protein kinase type IV (Homo sapiens) (UniProt Q16566).
T2 sequence (whole entry): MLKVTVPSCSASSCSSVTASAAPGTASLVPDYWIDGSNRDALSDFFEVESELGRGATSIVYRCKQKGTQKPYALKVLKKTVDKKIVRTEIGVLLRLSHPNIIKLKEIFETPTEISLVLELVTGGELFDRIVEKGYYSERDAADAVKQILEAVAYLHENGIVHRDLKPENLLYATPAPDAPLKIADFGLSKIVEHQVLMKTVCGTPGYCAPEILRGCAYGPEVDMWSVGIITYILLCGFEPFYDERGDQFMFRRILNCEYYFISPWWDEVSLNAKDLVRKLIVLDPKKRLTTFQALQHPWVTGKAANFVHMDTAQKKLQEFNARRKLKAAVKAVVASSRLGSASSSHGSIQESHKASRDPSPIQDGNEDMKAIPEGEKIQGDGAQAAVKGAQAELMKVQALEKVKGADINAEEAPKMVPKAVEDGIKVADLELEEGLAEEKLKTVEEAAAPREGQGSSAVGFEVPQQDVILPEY
Nature of the test: Residual activity of CAMK4 at 0.1 uM by microplate scintillation counting.

Test [13] concerns the target Serine/threonine-protein kinase PAK 6 (Homo sapiens) (UniProt Q9NQU5). Nature of the test: Residual activity of PAK6 at 0.1 uM by microplate scintillation counting.
In test [14] the target is Ribosomal protein S6 kinase alpha-5 (Homo sapiens) (UniProt O75582). Nature of the test: Residual activity of RPS6KA5 at 10 uM by microplate scintillation counting.
The target of test [15] is T3, Serine/threonine-protein kinase 17A (Homo sapiens) (UniProt Q9UEE5).
T3 sequence (whole entry): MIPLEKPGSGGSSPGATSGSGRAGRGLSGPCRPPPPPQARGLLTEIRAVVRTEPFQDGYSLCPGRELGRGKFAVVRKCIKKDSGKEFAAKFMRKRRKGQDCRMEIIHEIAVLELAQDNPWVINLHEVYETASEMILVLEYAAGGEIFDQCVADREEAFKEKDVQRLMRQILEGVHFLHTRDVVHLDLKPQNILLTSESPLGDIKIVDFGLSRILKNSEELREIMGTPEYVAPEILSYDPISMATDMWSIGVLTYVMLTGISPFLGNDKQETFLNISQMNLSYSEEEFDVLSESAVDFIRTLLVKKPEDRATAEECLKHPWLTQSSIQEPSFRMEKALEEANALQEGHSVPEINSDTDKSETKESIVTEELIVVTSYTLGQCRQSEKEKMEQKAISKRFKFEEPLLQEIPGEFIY
The test is described as follows: Residual activity of STK17A at 10 uM by microplate scintillation counting.

Test [16] addresses Serine/threonine-protein kinase 16 (Homo sapiens) (UniProt O75716). The test is described as follows: Residual activity of TSF1 at 10 uM by microplate scintillation counting.
For test [17], the target named is Vascular endothelial growth factor receptor 1 (Homo sapiens) (UniProt P17948). The test is described as follows: Residual activity of VEGFR1 at 10 uM by microplate scintillation counting.

Broadly, the residual activity is the signal under treatment as a percentage of the control signal.

Sequence of Death-associated protein kinase 3 (Homo sapiens) (O43293 whole entry, looked up): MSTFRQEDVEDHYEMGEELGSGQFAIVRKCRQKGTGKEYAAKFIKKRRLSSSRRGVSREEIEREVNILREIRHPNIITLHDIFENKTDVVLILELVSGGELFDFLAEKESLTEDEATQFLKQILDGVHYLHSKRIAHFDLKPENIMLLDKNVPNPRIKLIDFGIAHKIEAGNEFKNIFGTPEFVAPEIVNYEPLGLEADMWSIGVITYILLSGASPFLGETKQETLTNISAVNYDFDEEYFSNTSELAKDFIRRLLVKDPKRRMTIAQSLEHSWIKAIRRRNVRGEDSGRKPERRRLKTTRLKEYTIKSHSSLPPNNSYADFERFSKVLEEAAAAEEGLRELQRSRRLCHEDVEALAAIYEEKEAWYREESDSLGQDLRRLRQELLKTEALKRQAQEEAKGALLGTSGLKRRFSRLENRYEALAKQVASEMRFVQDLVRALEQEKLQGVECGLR
Sequence of Protein kinase C beta type (Homo sapiens) (P05771 2-671 limits assumed): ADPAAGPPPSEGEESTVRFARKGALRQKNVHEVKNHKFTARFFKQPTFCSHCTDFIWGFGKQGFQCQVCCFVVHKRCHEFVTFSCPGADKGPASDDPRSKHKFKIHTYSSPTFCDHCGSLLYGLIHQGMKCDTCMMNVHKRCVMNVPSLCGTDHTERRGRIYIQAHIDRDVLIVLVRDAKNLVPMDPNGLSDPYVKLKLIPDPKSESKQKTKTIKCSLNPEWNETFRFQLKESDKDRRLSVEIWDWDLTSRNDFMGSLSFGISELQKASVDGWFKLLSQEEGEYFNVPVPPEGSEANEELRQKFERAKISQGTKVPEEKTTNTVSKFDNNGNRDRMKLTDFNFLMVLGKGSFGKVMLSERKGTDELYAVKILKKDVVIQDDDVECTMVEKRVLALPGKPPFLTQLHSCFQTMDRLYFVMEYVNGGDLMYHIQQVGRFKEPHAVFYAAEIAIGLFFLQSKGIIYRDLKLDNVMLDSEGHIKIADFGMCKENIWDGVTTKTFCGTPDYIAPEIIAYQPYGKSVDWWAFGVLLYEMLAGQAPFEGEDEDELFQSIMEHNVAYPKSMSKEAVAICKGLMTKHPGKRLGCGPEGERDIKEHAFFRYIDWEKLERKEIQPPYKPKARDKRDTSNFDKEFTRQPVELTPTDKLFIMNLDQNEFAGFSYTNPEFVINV
Sequence of Serine/threonine-protein kinase 24 (Homo sapiens) (Q9Y6E0 whole entry, looked up): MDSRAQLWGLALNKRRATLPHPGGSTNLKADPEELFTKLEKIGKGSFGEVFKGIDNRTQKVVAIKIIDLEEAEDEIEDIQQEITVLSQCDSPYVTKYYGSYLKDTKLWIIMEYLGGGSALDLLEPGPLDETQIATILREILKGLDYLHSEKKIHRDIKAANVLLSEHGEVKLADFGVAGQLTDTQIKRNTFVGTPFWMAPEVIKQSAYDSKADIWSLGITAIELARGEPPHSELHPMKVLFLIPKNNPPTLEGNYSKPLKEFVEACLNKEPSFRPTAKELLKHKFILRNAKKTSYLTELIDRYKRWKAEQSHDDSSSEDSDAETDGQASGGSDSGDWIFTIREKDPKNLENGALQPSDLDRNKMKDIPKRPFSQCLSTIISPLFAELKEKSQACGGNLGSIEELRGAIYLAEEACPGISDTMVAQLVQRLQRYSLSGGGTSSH
Sequence of Serine/threonine-protein kinase PAK 6 (Homo sapiens) (Q9NQU5 whole entry, looked up): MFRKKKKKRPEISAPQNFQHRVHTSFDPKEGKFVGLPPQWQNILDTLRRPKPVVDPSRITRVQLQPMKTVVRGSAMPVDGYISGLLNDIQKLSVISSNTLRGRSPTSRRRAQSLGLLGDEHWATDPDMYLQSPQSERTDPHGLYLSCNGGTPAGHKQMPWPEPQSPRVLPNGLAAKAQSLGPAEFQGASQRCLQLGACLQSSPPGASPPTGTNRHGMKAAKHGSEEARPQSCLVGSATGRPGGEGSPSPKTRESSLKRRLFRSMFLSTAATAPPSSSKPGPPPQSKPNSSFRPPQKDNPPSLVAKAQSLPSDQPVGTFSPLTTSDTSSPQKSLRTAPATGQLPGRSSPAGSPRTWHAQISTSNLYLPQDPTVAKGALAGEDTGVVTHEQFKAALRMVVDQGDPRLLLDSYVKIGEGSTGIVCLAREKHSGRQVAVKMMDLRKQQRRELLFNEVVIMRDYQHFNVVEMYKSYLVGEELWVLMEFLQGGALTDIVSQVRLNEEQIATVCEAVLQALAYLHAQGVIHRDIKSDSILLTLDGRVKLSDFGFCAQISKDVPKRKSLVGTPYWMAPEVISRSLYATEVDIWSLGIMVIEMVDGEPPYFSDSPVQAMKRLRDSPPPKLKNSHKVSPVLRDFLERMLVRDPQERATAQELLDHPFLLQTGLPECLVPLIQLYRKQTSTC
Sequence of Ribosomal protein S6 kinase alpha-5 (Homo sapiens) (O75582 whole entry, looked up): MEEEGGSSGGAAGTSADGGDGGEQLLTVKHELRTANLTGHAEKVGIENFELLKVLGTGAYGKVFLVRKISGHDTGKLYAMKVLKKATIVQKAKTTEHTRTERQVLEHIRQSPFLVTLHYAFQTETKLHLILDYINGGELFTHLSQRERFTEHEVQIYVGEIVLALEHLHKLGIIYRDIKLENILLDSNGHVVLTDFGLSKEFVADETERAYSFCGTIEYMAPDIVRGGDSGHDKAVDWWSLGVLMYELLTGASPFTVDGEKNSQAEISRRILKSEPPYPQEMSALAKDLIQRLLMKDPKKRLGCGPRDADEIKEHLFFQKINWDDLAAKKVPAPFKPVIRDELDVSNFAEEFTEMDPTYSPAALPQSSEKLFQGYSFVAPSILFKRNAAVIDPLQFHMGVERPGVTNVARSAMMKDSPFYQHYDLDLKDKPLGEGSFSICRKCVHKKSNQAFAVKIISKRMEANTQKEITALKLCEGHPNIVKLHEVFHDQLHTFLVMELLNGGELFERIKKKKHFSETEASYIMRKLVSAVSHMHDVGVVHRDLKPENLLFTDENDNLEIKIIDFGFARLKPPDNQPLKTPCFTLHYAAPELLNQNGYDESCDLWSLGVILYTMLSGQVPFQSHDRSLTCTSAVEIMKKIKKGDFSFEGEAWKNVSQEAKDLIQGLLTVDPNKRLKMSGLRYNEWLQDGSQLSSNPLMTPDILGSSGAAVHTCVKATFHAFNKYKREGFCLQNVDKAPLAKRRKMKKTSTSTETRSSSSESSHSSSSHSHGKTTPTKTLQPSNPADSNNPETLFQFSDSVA
Sequence of Death-associated protein kinase 1 (Homo sapiens) (P53355 whole entry, looked up): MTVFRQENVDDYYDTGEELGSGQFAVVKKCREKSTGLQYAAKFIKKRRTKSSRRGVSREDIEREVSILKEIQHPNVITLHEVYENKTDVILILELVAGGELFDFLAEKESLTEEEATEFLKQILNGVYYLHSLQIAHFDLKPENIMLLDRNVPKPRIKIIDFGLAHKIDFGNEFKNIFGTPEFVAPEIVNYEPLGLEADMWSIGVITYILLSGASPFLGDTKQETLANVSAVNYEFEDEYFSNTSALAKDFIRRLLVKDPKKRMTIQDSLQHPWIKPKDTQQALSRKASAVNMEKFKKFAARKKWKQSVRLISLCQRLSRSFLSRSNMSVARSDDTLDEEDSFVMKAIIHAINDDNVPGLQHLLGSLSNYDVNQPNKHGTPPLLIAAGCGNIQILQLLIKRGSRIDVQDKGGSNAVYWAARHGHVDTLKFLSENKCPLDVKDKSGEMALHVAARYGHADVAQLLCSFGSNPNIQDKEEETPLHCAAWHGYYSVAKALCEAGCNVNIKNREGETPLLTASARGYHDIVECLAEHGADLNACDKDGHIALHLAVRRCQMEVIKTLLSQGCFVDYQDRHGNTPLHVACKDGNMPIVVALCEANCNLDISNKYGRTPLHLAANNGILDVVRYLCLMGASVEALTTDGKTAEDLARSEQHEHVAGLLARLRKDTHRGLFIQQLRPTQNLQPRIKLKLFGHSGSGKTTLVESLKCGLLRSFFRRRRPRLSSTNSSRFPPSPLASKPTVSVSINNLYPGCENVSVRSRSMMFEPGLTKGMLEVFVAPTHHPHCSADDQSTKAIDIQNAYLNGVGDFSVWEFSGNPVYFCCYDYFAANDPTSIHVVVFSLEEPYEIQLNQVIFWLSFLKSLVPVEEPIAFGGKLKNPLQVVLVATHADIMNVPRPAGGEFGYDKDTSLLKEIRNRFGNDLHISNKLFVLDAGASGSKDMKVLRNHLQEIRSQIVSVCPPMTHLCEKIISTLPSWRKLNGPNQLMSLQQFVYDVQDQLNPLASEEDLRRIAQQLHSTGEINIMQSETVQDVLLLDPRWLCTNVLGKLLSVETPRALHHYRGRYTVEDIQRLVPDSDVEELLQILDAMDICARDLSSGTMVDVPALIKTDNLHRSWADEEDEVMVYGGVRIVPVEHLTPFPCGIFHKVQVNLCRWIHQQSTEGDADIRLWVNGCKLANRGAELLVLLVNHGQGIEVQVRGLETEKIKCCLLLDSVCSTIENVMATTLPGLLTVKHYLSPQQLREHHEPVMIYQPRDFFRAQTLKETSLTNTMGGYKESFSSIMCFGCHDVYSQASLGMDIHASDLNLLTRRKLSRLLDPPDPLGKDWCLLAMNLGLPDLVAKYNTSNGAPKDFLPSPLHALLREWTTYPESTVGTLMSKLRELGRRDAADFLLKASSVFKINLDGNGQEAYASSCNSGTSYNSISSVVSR
Sequence of Serine/threonine-protein kinase 16 (Homo sapiens) (O75716 whole entry): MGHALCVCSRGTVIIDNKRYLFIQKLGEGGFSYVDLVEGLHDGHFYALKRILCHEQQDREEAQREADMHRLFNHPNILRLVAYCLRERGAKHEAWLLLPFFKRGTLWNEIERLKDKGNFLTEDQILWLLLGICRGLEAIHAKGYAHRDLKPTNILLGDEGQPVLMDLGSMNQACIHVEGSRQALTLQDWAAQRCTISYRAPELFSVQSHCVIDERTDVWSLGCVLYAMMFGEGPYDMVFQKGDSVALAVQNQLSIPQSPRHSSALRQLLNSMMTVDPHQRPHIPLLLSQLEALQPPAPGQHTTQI

For the molecule `COc1cc2c(Oc3ccc(-c4nc5ccccc5s4)cc3F)ncnc2cc1OCCCN1CCN(C)CC1`, the residual activity in [1] was 101%; in test [2], 81%; in test [3], 115%; in [4] it was 87%; in test [5] it was 80%; in [6] it was 103%. For the same molecule, the residual activity in [7] was determined as 117%; in test [8], 104%; in test [9], 99%; in test [10], 113%; in test [11] it was 90%; in test [12] it was 97%. Moreover, the residual activity was 98% in test [13]; 151% in test [14]; 1% in test [15]; 59% in test [16]; 14% in test [17].

With `COc1cc2c(Oc3ccc(-c4nc5ccccc5s4)cc3)ncnc2cc1OCCCN1CCN(C)CC1`, the residual activity in test [1] was 94%; in test [2] it was 84%; in test [3], 123%; in test [4], 108%; in [5] it was 73%; in test [6], 108%. Moreover, the residual activity in test [7] is 112%; in [8], 103%; in [9], 88%; in [10], 112%; in [11], 100%; in test [12], 96%. In addition, the residual activity in test [13] amounted to 69%; in [14], 146%; in test [15], 19%; in test [16] it was 66%; in test [17], 35%.

For the molecule `COc1cc2c(Oc3ccc(-c4nc5ccccc5s4)cc3)ncnc2cc1OCCCN1CCCC1`, the residual activity was found to be 107% in test [1]; 86% in [2]; 126% in test [3]; 108% in [4]; 86% in test [5]; 105% in test [6]. Further, the residual activity in test [7] turned out to be 102%; in [8], 98%; in [9] it was 99%; in test [10], 79%; in test [11], 99%; in test [12], 102%. The residual activity is 99% in [13]; 140% in [14]; 6% in test [15]; 56% in [16]; 28% in test [17].

For the origin of these results see ChEMBL document CHEMBL1152560, “Substituted 2-arylbenzothiazoles as kinase inhibitors: hit-to-lead optimization” (Bioorg Med Chem, 2009).
